We go through 8 molecules from patent US4968690A (priority 1989, dated 1990).

Read-outs that look alike come from different tables or passages of the source.

One data set relates to L1210 tumor cells. In words: Cytotoxicity against L1210 tumor cells in culture. The note with it: Mus musculus, 48 hour exposure. In kind it is cell-based.
Data set [1] concerns HL-60 cells. Description: Cell viability / acute cytotoxicity in HL-60 cells. The format is cell-based, human. The source says: This reduced toxicity provides excellent selectivity and potency as an antiviral agent.
Data set [2] has as its system enzyme which hydrolyzes S-adenosyl-L-homocysteine (AdoHcy). The note with it: background; cited from earlier work.
For data set [3] the following is noted: background; cited from earlier work.
The conditions of data set [4]: background; cited from earlier work. The source holds these as a separate data set.
Data set [5] concerns the target hamster liver adenosine-homocystine (AdoHyc) hydrolase (Mesocricetus auratus, UniProt A0A1U7RAJ1). In words: Inhibition of hamster liver AdoHcy hydrolase.
In data set [6] the test system is Polio Type III virus (Sabin oral vaccine strain). Description: microbe, parasite or virus in culture. The format is cell-based.
Data set [7] concerns Coxsackie A9 virus, strain 1861. In words: Antiviral effect, Coxsackie A9 in Viro E6 cells (plaque reduction). The settings on record: read-out: % PFU Reduction, Coxsackie 9A. The format is cell-based.
Data set [8] has as its system Dengue virus Type II, strain 16681. Description: Antiviral effect, Dengue II in Vero E6 cells (plaque reduction). The format is cell-based. The note with it: Vero C1008, read-out: % PFU Reduction, Dengue II.
For data set [9], the system named is cells used to support virus growth. In words: Toxicity to cells used to support virus growth. In kind it is cell-based. The note with it: listed concentrations 50, 25, 5 μg/ml. From the text:
^(a) Concentrations listed were nontoxic to cells used to support
^(a) Concentrations listed were noncytotoxic to cells used to support

For data set [10], the system named is Dengue virus Type II, strain 16681. Description: Antiviral effect, Dengue Type II in BHK21 cells (plaque reduction). In kind it is cell-based. The note with it: for inhibition at 5 µg/mL / inhibition at 25 µg/mL / inhibition at 50 µg/mL: Dengue virus, BHK-21, BHK21 cells, read-out: % PFU Reduction, Dengue Type II; for inhibition at 5 µg/mL: 5 μg/ml; for inhibition at 25 µg/mL: 25 μg/ml; for inhibition at 50 µg/mL: 50 μg/ml.

Data set [11] deals with Adenovirus Type 7, strain V1012. In words: Antiviral effect, Adenovirus 7 in Hep2 cells (plaque reduction). In kind it is cell-based. The source says: ^(c) Adenovirus Type 7, strain V1012 in Hep2 cells.
Data set [12] has as its system Herpes Simplex Type II virus, strain 28382. In words: Antiviral effect, Herpes Simplex II in mink lung cells (plaque reduction). The format is cell-based. The settings on record: for inhibition at 5 µg/mL: 5 μg/ml; for inhibition at 25 µg/mL: 25 μg/ml. From the text: ^(b) Herpes Simplex Type II virus, strain 28382 in mink lung cells.
^(d) Plaque forming units (PFU) is a measure of the infectivity of th
^(e) Multiplicity of infection (MOI) 2.0 PFU/ml.

The subject of data set [13] is HL-60 cells. Description: Growth inhibition and differentiation of HL-60 cells (nitroblue tetrazolium reduction). The format is cell-based, human. From the text: (§1) The effect of this compound on differentiation, and nucleic acid and nucleotide biosynthesis were examined in the malignant human promyelocytic leukemia cell line, HL-60. […] During this exposure interval, pronounced differentiation to mature myeloid cells occurred wherein 95% of the cell population reduced nitroblue tetrazolium four days after exposure to 10^-7 M CPE-C.

Data set [14] relates to DNA synthesis / RNA synthesis in HL-60 cells. Description: DNA and RNA synthesis in HL-60 cells. The format is cell-based, human.
Excerpt: as §1

Data set [15] relates to CTP, UTP, ATP, GTP levels in HL-60 cells. Description: Nucleotide (CTP, UTP, ATP, GTP) levels in HL-60 cells. The format is cell-based, human.
Excerpt: as §1

The subject of the next data set is c-myc mRNA. In words: c-myc mRNA levels in HL-60 cells. The settings on record: preceding induction of mature myeloid cells. The format is cell-based, human.
Excerpt: as §1

The next data set concerns H.Ep.-2 cells. The settings on record: background; cited from earlier work.
The subject of another data set is quiescent normal cells. The settings on record: subtoxic concentrations; cited from earlier work.
The test system of a further data set is adenosine deaminase. The settings on record: background; cited from earlier work.
Another data set has as its system L1210 leukemia. The settings on record: background; cited from earlier work.
The next data set concerns L1210 cells. The settings on record: background; cited from earlier work.
In another data set the test system is malignant cell lines. The note with it: subtoxic concentrations; cited from earlier work.
Another data set deals with viruses. In words: General antiviral evaluation. In kind it is cell-based. The settings on record: compared with CPE-C.
Where [16] appears, read: read-out: % PFU Reduction, Polio III.
Setting [17] is: mink lung cells, first value of cell, presumably MOI 2.0 PFU/ml, read-out: % PFU Reduction, Herpes Simplex II (first value).
The mark [18] stands for this setting: mink lung cells, second value of cell, read-out: % PFU Reduction, Herpes Simplex II (second value).
Setting [19] is: read-out: % PFU Reduction, Polio Type III.

On to `Nc1ncnc2c1nnn2[C@@H]1C=C(CO)[C@@H](O)[C@H]1O` [Formula 8-Aza-CPE-A, 7-Amino-3-[(1'R,2'S,3'R)-4'-hydroxymethyl-2',3'-dihydroxy-4'-cyclopenten-1'-yl]-3H-1,2,3-triazolo[4,5-d]pyrimidine], for which the IC50 in the data set with L1210 tumor cells is 3000 nM.
As for `Nc1ncnc2c1ncn2[C@@H]1C=C(CO)[C@@H](O)[C@H]1O` [Neplanocin A, 9-[(1'R,2'S,3'R)-4-Hydroxymethyl-2',3'-dihydroxy-4-cyclopenten-1'-yl]adenine], the “toxicity to HL-60 cells” value with HL-60 cells [1] (24 hrs. exposure, equimolar concentration, vs 3-deazaneplanocin) was “more toxic”. Further, in [2], the “inhibition of AdoHcy-hydrolyzing enzyme (in words)” value is given as “potent inhibitor”. Also, the side effects result in data set [3] was “multiplicity of side effects including cytotoxicity”. The phosphorylation entry in [4] is recorded as “readily phosphorylated”.
`Nc1nccc2c1ncn2[C@@H]1C=C(CO)[C@@H](O)[C@H]1O` [3-Deazaneplanocin A, 4-Amino-1-[(1'R,2'S,3'R)-4'-hydroxymethyl-2',3'-dihydroxy-4'-cyclopenten-1'-yl]imidazo[4,5-c]pyridine]: the Ki in data set [5] was found to be 0.05 nM. In [5] (summary statement), the “inhibition of AdoHyc hydrolase (in words)” value is on record as “particularly potent inhibitor”. Moreover, in data set [5] (with adenosine), the mode of inhibition entry is recorded as “competitive inhibitor”. Moreover, the “toxicity (in words)” value in the data set with HL-60 cells [1] (summary statement, compared with neplanocin A) is recorded as “without the toxicity of neplanocin A”. Moreover, the “change in cell viability” value in the data set with HL-60 cells [1] (two days of continuous exposure) is “Little or no change in cell viability”. In addition, the values for the inhibition at 5 µg/mL in data set [6] (setting [16]), in data set [7] and in data set [8] were 44.4%, 69.4% and 14.2%, respectively. The inhibition at 25 µg/mL in [6] (setting [16]) is 77.7%; in data set [7] it was 77.2%; in [8], 95%. The inhibition at 50 µg/mL in [6] (setting [16]) turned out to be 83.3%; in data set [7], 89.4%; in data set [8] it was 98.9%. Moreover, the “toxicity to cells used to support virus growth” value (from here on “toxicity to cells used”) in [9] is “nontoxic”.
Turning to `Nc1ccn([C@@H]2C=C(CO)[C@@H](O)[C@H]2O)c(=O)n1` [CPE-C, 4-amino-1-[(1'R,2'S,3'R)-4'-hydroxymethyl-4'-cyclopenten-1'-yl]-2(1H)pyrimidinone], the inhibition at 5 µg/mL came to 0% in [10]; 70% in data set [11] (Human mastadenovirus B, HEp-2, 5 μg/ml, Hep2 cells, read-out: % PFU Reduction, Adenovirus 7); 98.7% in data set [12] (setting [17]); 98.6% in data set [12] (setting [18]); 73.2% in data set [6] (setting [19]). For the same molecule, the inhibition at 25 µg/mL in data set [10] stood at 2.5%; in data set [11] (Human mastadenovirus B, HEp-2, 25 μg/ml, Hep2 cells, read-out: % PFU Reduction, Adenovirus 7), 80%; in [12] (setting [17]), 95.7%; in [12] (setting [18]), 99.5%; in data set [6] (setting [19]) it was 82.1%. In addition, the inhibition at 50 µg/mL in data set [10] is 95%; in data set [11] (Human mastadenovirus B, HEp-2, 50 μg/ml, Hep2 cells, read-out: % PFU Reduction, Adenovirus 7), 94%; in [12] (50 μg/ml, mink lung cells, second value of cell, read-out: % PFU Reduction, Herpes Simplex II (second value)), 100%; in data set [12] (read-out: % PFU Reduction, Herpes Simplex II (first value)), 97.4%; in data set [6] (setting [19]), 94.6%. In addition, the “antiviral activity (in words), Adenovirus Type 7” value in data set [11] (non-cytotoxic concentrations) is on record as “excellent activity”. Further, the “antiviral activity (in words), Herpes Simplex Type II” value in data set [12] (non-cytotoxic concentrations) was “excellent activity”. Moreover, the “inhibition of cell growth” value in the data set on HL-60 cells [13] (continuous exposure for 5 days, 10^-8 to 10^-6 M) was “progressive inhibition of cell growth”. In addition, in the data set with HL-60 cells [13] (continuous exposure for 5 days, 10^-8 to 10^-6 M, nitroblue tetrazolium reduction), the “differentiation to a non-malignant phenotype” value is given as “differentiation to a non-malignant phenotype”. Besides, the “cell population that reduced nitroblue tetrazolium” value in the data set with HL-60 cells [13] (four days after exposure to 10^-7 M) is recorded as 95 % of the cell population. For the same molecule, in the data set with HL-60 cells [13] (summary statement), the “activity as cancer cell differentiating agent (in words)” value was “potent cancer cell differentiating agent”. Besides, the RNA synthesis result in data set [14] (10^-7 M, relative to DNA synthesis) is listed as “inhibited to a lesser extent”. The molecule also came in with an activity at 0.1 µM in data set [14] (Homo sapiens, HL-60, 24 hrs. after exposure to 10^-7 M) of 10%. Further, the “level of CTP (in words)” value in data set [15] (during CPE-C treatment) is “rapid and pronounced inhibition”. The “level of UTP, ATP or GTP” value in data set [15] (during CPE-C treatment) was “not of UTP, ATP or GTP”. In data set [15] (following drug removal), the “CTP levels following drug removal” value is given as “sustained reduction in CTP levels”. Moreover, the “c-myc mRNA levels” value in the data set on c-myc mRNA is on record as “inhibition of c-myc mRNA levels which was more pronounced than the reduction in total cellular RNA synthesis”. Also, in data set [9], the “toxicity to cells used” value is recorded as “noncytotoxic”.
Consider `Nc1ncnc2c1ncn2[C@@H]1C[C@H](CO)[C@@H](O)[C@H]1O` [C-Ado], for which the “cytotoxicity to H.Ep.-2 cells in culture” value in the data set with H.Ep.-2 cells is recorded as “highly cytotoxic”. Besides, the “cell proliferation of quiescent normal cells” value in the data set with quiescent normal cells is on record as “induced cell proliferation”. For the same molecule, in the data set with adenosine deaminase, the “affinity for adenosine deaminase relative to adenosine” value is recorded as “hundredfold lower” and the “deamination by adenosine deaminase” value is on record as “also deaminated by adenosine deaminase”. In addition, the “activity in in vivo mouse L1210 model” value in the data set with L1210 leukemia was “inactivity”. For the same molecule, in the data set on L1210 cells, the “cytotoxicity to L1210 cells in culture” value was “highly cytotoxic”. Also, in the data set with malignant cell lines, the “growth in malignant cell lines” value is “inhibited growth”.
Turning to `O=c1ccn([C@@H]2C=C(CO)[C@@H](O)[C@H]2O)c(=O)[nH]1` [CPE-U], in [10], the “antiviral activity (in words), Dengue Type II” value is “good activity”; the inhibition at 5 µg/mL is 2%; the inhibition at 25 µg/mL worked out at 91%; the inhibition at 50 µg/mL turned out to be 93%. For the same molecule, the “general antiviral activity (in words)” value in the data set with viruses was “less effective as a general antiviral agent”. Moreover, the “toxicity to cells used” value in data set [9] is “noncytotoxic”.
Regarding 3-deazaaristeromycin, in data set [2], the “inhibition of AdoHcy-hydrolyzing enzyme (in words)” value was “very potent and specific inhibitor”. Further, the side effects result in data set [3] is on record as “devoid of some of the undesirable side effects”. Also, the phosphorylation and deamination result in [4] is “resistance towards phosphorylation and deamination”.
For the molecule `Nc1nccc2c1ncn2[C@@H]1O[C@H](CO)[C@@H](O)[C@H]1O` [3-deazaadenosine], in data set [4], the phosphorylation and deamination result is “resistance towards phosphorylation and deamination”.
